Laboratory results from US4289910A, “1-Hydroxymethyl-prosten-1-ol derivatives” (American Cyanamid Company, priority 1980, dated 1981).

How the values were obtained:
Type in all cases: in vivo
Ach = experiment: Konzett data, Ach
5-HT = experiment: Konzett data, 5-HT
Hist = experiment: Konzett data, Hist

Compound	Ach (ED50) (Ach)	5-HT (ED50) (5-HT)	Hist (ED50) (Hist)	ED50 (Ach)
CCCCCC(C)(O)/C=C/C1C(O)CC(=O)C1C/C=C\CCCCO (racemic) [dl-1,11 ,15-trihydroxymethyl-9-oxo-15-methyl-5-cis-13-trans prostadiene]	4.3 mg/kg	8.3 mg/kg	0.75 mg/kg	
C=CC(O)(C/C=C/[C@H]1[C@H](O)CC(=O)[C@@H]1CCCCCCC(O)CO)CCCC (relative stereo) [3β-(4-Butylhydroxy-4-hydroxy-1,5-hexadienyl)-2α-(7,8-dihydroxyoctyl)-4α-hydroxycyclopentanone]				20.1 mg/kg
CCCCC(C)(O)C/C=C/[C@H]1[C@H](O)CC(=O)[C@@H]1C/C=C\CCCC(O)CO (relative stereo) [11α,16-Dihydroxy-1-hydroxymethyl-16-methyl-9-oxo-5-cis-13-trans-prostadien-1-ol]				331 mg/kg
CCCCC(C)(O)C/C=C/[C@H]1[C@H](O)CC(=O)[C@@H]1CCCCCCC(O)CO (relative stereo) [11α,16-Dihydroxy-1-hydroxymethyl-16-methyl-,9-oxo-13-trans-prosten-1-ol]				75.9 mg/kg
C=CC(O)(C/C=C/[C@H]1[C@H](O)CC(=O)[C@@H]1C/C=C\CCCC(O)CO)CCCC (relative stereo) [11α,16-Dihydroxy-1-hydroxymethyl-16-vinyl-9-oxo-5-cis-13-trans-prostadien-1-ol]				11.8 mg/kg
